In patent publication US20100143475A1, “TRANSDERMAL THERAPEUTIC SYSTEM WITH TWO-PHASE RELEASE PROFILE” (priority 2006, published 2010):
Like-named read-outs stand apart in the source and are kept apart here.

Experiments:
[1] = double blind, oral, PDR 58, 2004, cited from earlier work
[2] = 20 cm^2 TTS, plasma
Description: The application site was the upper arm and changed from one arm to the other between two successive periods.

[3] = Double blind comparison of oral lisuride and placebo in 20 patients with Parkinson's disease; details: up to maximum tolerance dose of 5 mg daily, immediate-release tablet, eight of 20 patients
Description: The dosage of other active substances was kept unchanged during the trial.

[4] = cited from earlier work
[5] = difference to placebo
[6] = oral, cited from earlier work
[7] = Oral ropinirole trial, comparison of central side effects (Table 5); assay type: in vivo, human; details: difference to placebo, up to 24 mg (8 mg TID), 6 months
[8] = difference to placebo (footnote: less than placebo), transdermal, 2 (20 cm^2) QOD, 14 weeks
[9] = difference to placebo, transdermal, 2 (20 cm^2) QOD, 14 weeks
[10] = transdermal, 2 (20 cm^2) QOD, 14 weeks, 335 Parkinsonism patients
[11] = oral, 4.5 mg or max. tol. dose daily, 7 weeks dose esc. +4 weeks
[12] = oral, 4.5 mg or max. tol. dose, 7 weeks dose esc. +4 weeks
[13] = up to 24 mg (8 mg TID) daily, 6 months

CC(C)C[C@H]1C(=O)N2CCC[C@H]2[C@]2(O)O[C@](NC(=O)[C@@H]3C=C4c5cccc6[nH]c(Br)c(c56)C[C@H]4N(C)C3)(C(C)C)C(=O)N12 [Bromocriptine]
GI side effects: Nausea/vomiting (%) ([1]; dose range 5.0-30.0 mg, n = 231): 43%

C=CCN1C[C@H](C(=O)N(CCCN(C)C)C(=O)NCC)C[C@@H]2c3cccc4[nH]cc(c34)C[C@H]21 [Cabergoline]
GI side effects: Nausea/vomiting (%) ([1]; dose range 0.25-1.0 mg, n = 221): 29.0%

CCN(CC)C(=O)N[C@H]1C=C2c3cccc4[nH]cc(c34)CC2N(C)C1 (some centres unmarked) [Lisuride, lisuride]
Transition level ([2]; First application): 32 pg/mL
Peak level ([2]; Fourth application): 140 pg/mL
Transition level ([2]; Fourth application): 32 pg/mL
Peak level ([2]; Second application): 125 pg/mL
Transition level ([2]; Second application): 23 pg/mL
Peak level ([2]; Third application): 130 pg/mL
Transition level ([2]; Third application): 31 pg/mL
Gastrointestinal symptoms, in particular nausea (patients) [3]: 40%
Other psych.* (amnesia, fear, abnormal dreams, nervousness, delusions, paranoid reactions, sleeplessness, transdermal, 2 (20 cm^2) QOD, 14 weeks): 8
Skin reactions resulting in discontinuation Δ (difference to placebo): 11.3
Dizziness Δ [8]: 0^♡
Other psych.* Δ [8]: 0^♡
Confusion Δ [9]: 1.2
Drownsiness Δ [9]: 1.8
Dyskinesias Δ [9]: 4.1
Fatigue Δ [9]: 1
Hallucinations Δ [9]: 3.6
Hypotension Δ [9]: 1.2
Nausea Δ [9]: 0.6
Syncope Δ [9]: 0
Vomiting Δ [9]: 0.6
Skin reactions resulting in discontinuation (lisuride group, transdermal, 14 weeks): 12.5%
Confusion [10]: 1.2
Dizziness [10]: 0.6
Drownsiness [10]: 3.6
Dyskinesias [10]: 7.1
Fatigue [10]: 1
Hallucinations [10]: 5.4
Hypotension [10]: 2.4
Syncope [10]: 0
Vomiting [10]: 1.2

CCCN[C@H]1CCc2nc(N)sc2C1 [Pramipexol]
GI side effects: Nausea/vomiting (%) ([1]; dose range 0.375-4.5 mg, n = 388): 12.4%
patients who reported hallucinations ([4]; 8 month trial): 17%
Other psych.* ([4]; amnesia, fear, abnormal dreams, nervousness, delusions, paranoid reactions, sleeplessness, oral, 4.5 mg or max. tol. dose, 7 weeks dose esc. +4 weeks): 28.3
Confusion [4, 11]: 10
Dizziness [4, 11]: 2.9
Drownsiness [4, 11]: 9
Dyskinesias [4, 11]: 14.7
Fatigue [4, 11]: 29.4
Hypotension [4, 11]: 8.8
Nausea [4, 11]: 8.8
Hallucinations Δ ([5]; 8 month trial): 13
Confusion Δ [5, 12]: 3
Dizziness Δ [5, 12]: 0.2
Drownsiness Δ [5, 12]: 2
Dyskinesias Δ [5, 12]: 10.2
Fatigue Δ [5, 12]: 24.9
Hypotension Δ [5, 12]: 6.5
Nausea Δ [5, 12]: 2
Other psych.* Δ [5, 12]: 12.4

CCCN(CCC)CCc1cccc2c1CC(=O)N2 [Ropinirol]
Other psych.* ([6]; amnesia, fear, abnormal dreams, nervousness, delusions, paranoid reactions, sleeplessness, up to 24 mg (8 mg TID), 6 months): 19
Confusion [6, 13]: 9
Dizziness [6, 13]: 26
Drownsiness [6, 13]: 20
Dyskinesias [6, 13]: 34
Hallucinations [6, 13]: 10
Hypotension [6, 13]: 2
Nausea [6, 13]: 30
Syncope [6, 13]: 3
Vomiting [6, 13]: 7
Fatigue ([6]; data from restless legs study): 8^♦
GI side effects: Nausea/vomiting (%) ([1]; dose range 0.5-5.0 mg, n = 157): 45.8%
Confusion Δ [7]: 7
Dizziness Δ [7]: 10
Drownsiness Δ [7]: 12
Dyskinesias Δ [7]: 21
Hallucinations Δ [7]: 6
Hypotension Δ [7]: 1
Nausea Δ [7]: 12
Other psych.* Δ [7]: 10
Syncope Δ [7]: 1
Vomiting Δ [7]: 3
